Assay results from patent US20220132847A1, “CINNOLINIUM COMPOUNDS FOR USE IN A METHOD OF CONTROLLING UNWANTED PLANT GROWTH” (SYNGENTA CROP PROTECTION AG, priority 2019, published 2022).

Columns and labels:
Assay in all cases: Post-emergence efficacy, glasshouse
Format in all cases: in vivo
Conditions in all cases: evaluated after 13 days, 100=total damage to plant, 0=no damage to plant
[1] = tested on: Eleusine indica (ELEIN)
Protocol: (§1) Seeds of a variety of test species were sown in standard soil in pots. After cultivation for 14 days (post-emergence) under controlled conditions in a glasshouse (at 24/16° C., day/night; 14 hours light; 65% humidity), the plants were sprayed with an aqueous spray solution derived from the dissolution of the technical active ingredient formula (I) in a small amount of acetone and a special solvent and emulsifier mixture referred to as IF50 (11.12% Emulsogen EL360™+44.44% N-methylpyrrolidone+44.44% Dowanol DPM glycol ether), to create a 50 g/l solution which was then diluted to required concentration using 0.25% or 1% Empicol ESC70 (Sodium lauryl ether sulphate)+1% ammonium sulphate in water as diluent.
(§2) The test plants were then grown in a glasshouse under controlled conditions (at 24/16° C., day/night; 14 hours light; 65% humidity) and watered twice daily. After 13 days the test was evaluated (100=total damage to plant; 0=no damage to plant).
(§3) Ipomoea hederacea (IPOHE), Euphorbia heterophylla (EPHHL), Chenopodium album (CHEAL), Amaranthus palmeri (AMAPA), Lolium perenne (LOLPE), Digitaria sanguinalis (DIGSA), Eleusine indica (ELEIN), Echinochloa crus-galli (ECHCG), Setaria faberi (SETFA)

[2] = tested on: Euphorbia heterophylla (EPHHL)
Protocol: as §1, §2, §3

[3] = tested on: Digitaria sanguinalis (DIGSA)
Protocol: as §1, §2, §3

[4] = tested on: Amaranthus palmeri (AMAPA)
Protocol: as §1, §2, §3

[5] = tested on: Chenopodium album (CHEAL)
Protocol: as §1, §2, §3

[6] = tested on: Lolium perenne (LOLPE)
Protocol: as §1, §2, §3

[7] = tested on: Setaria faberi (SETFA)
Protocol: as §1, §2, §3

[8] = tested on: Ipomoea hederacea (IPOHE)
Protocol: as §1, §2, §3

[9] = tested on: Echinochloa crus-galli (ECHCG)
Protocol: as §1, §2, §3

[10] = Eleusine indica, post-emergence, 312 h, Application Rate 1000 g/Ha, read-out: Control of weed species after post-emergence application, ELEIN
[11] = Euphorbia heterophylla, post-emergence, 312 h, Application Rate 1000 g/Ha, read-out: Control of weed species after post-emergence application, EPHHL
[12] = Digitaria sanguinalis, post-emergence, 312 h, Application Rate 1000 g/Ha, read-out: Control of weed species after post-emergence application, DIGSA
[13] = Amaranthus palmeri, post-emergence, 312 h, Application Rate 1000 g/Ha, read-out: Control of weed species after post-emergence application, AMAPA
[14] = Chenopodium album, post-emergence, 312 h, Application Rate 1000 g/Ha, read-out: Control of weed species after post-emergence application, CHEAL
[15] = Lolium perenne, post-emergence, 312 h, Application Rate 1000 g/Ha, read-out: Control of weed species after post-emergence application, LOLPE
[16] = Setaria faberi, post-emergence, 312 h, Application Rate 1000 g/Ha, read-out: Control of weed species after post-emergence application, SETFA
[17] = Ipomoea hederacea, post-emergence, 312 h, Application Rate 1000 g/Ha, read-out: Control of weed species after post-emergence application, IPOHE
[18] = Echinochloa crus-galli, post-emergence, 312 h, Application Rate 1000 g/Ha, read-out: Control of weed species after post-emergence application, ECHCG

Row | Compound | pest or weed control at 1000 g/ha [1, 10] | pest or weed control at 1000 g/ha [2, 11] | pest or weed control at 1000 g/ha [3, 12] | pest or weed control at 1000 g/ha [4, 13] | pest or weed control at 1000 g/ha [5, 14] | pest or weed control at 1000 g/ha [6, 15] | pest or weed control at 1000 g/ha [7, 16] | pest or weed control at 1000 g/ha [8, 17] | pest or weed control at 1000 g/ha [9, 18] | also measured
1 | ethoxy-[(2-methylcinnolin-2-ium-4-yl)methyl]phosphinic acid [Compound A51] | – | – | – | – | – | – | – | – | – | Control of weed species after post-emergence application, ELEIN ([1]; Application Rate 1000 g/Ha): 80; Control of weed species after post-emergence application, EPHHL ([2]; Application Rate 1000 g/Ha): 90; Control of weed species after post-emergence application, DIGSA ([3]; Application Rate 1000 g/Ha): 90; Control of weed species after post-emergence application, AMAPA ([4]; Application Rate 1000 g/Ha): 90; Control of weed species after post-emergence application, CHEAL ([5]; Application Rate 1000 g/Ha): 60; Control of weed species after post-emergence application, LOLPE ([6]; Application Rate 1000 g/Ha): 20; Control of weed species after post-emergence application, SETFA ([7]; Application Rate 1000 g/Ha): 90; Control of weed species after post-emergence application, IPOHE ([8]; Application Rate 1000 g/Ha): 60; Control of weed species after post-emergence application, ECHCG ([9]; Application Rate 1000 g/Ha): 70
2 | CC[n+]1cc(P(=O)([O-])O)c2ccccc2n1 [Compound A66] | 70% | 80% | 90% | 40% | 30% | 10% | 70% | 60% | 60% | –
3 | CNS(=O)(=O)[N-]C(=O)c1c[n+](C)nc2ccccc12 [Compound A10, 2-methyl-N-(methylsulfamoyl)cinnolin-2-ium-4-carboxamide] | 60% | 70% | 70% | 80% | 70% | 30% | 50% | 30% | 50% | –
4 | C[n+]1nc2ccccc2c(C(=O)[O-])c1-c1ccccc1 [Compound A60] | 100% | 100% | 90% | 100% | 100% | 40% | 70% | 100% | 50% | –
5 | CCOP(=O)(O)CCc1c[n+](C)nc2ccccc12 [Compound A54, ethoxy-[2-(2-methylcinnolin-2-ium-4-yl)ethyl]phosphinic acid 2,2,2-trifluoroacetate] | – | – | – | – | – | – | – | – | – | pest or weed control at 500 g/ha ([1]; Eleusine indica, post-emergence, 312 h, Application Rate 500 g/Ha, read-out: Control of weed species after post-emergence application, ELEIN): 30%; pest or weed control at 500 g/ha ([2]; Euphorbia heterophylla, post-emergence, 312 h, Application Rate 500 g/Ha, read-out: Control of weed species after post-emergence application, EPHHL): 80%; pest or weed control at 500 g/ha ([3]; Digitaria sanguinalis, post-emergence, 312 h, Application Rate 500 g/Ha, read-out: Control of weed species after post-emergence application, DIGSA): 40%; pest or weed control at 500 g/ha ([4]; Amaranthus palmeri, post-emergence, 312 h, Application Rate 500 g/Ha, read-out: Control of weed species after post-emergence application, AMAPA): 30%; pest or weed control at 500 g/ha ([5]; Chenopodium album, post-emergence, 312 h, Application Rate 500 g/Ha, read-out: Control of weed species after post-emergence application, CHEAL): 20%; pest or weed control at 500 g/ha ([6]; Lolium perenne, post-emergence, 312 h, Application Rate 500 g/Ha, read-out: Control of weed species after post-emergence application, LOLPE): 20%; pest or weed control at 500 g/ha ([7]; Setaria faberi, post-emergence, 312 h, Application Rate 500 g/Ha, read-out: Control of weed species after post-emergence application, SETFA): 30%; pest or weed control at 500 g/ha ([8]; Ipomoea hederacea, post-emergence, 312 h, Application Rate 500 g/Ha, read-out: Control of weed species after post-emergence application, IPOHE): 20%; pest or weed control at 500 g/ha ([9]; Echinochloa crus-galli, post-emergence, 312 h, Application Rate 500 g/Ha, read-out: Control of weed species after post-emergence application, ECHCG): 30%
6 | C[n+]1cc(C(=O)[N-]S(C)(=O)=O)c2ccccc2n1 [Compound A5, (2-methylcinnolin-2-ium-4-carbonyl)-methylsulfonyl-azanide] | 90% | 90% | 90% | 100% | 90% | 50% | 70% | 90% | 50% | –
7 | O=P(O)(O)CCCc1c[n+](CCCP(=O)(O)O)nc2ccccc12 [Compound A82, 3-[2-(3-phosphonopropyl)cinnolin-2-ium-4-yl]propylphosphonic acid chloride] | 10% | 20% | 10% | 30% | 0% | 10% | 0% | 10% | 20% | –
8 | CONC(=O)c1c[n+](C)nc2ccccc12 [Compound A4, N-methoxy-2-methyl-cinnolin-2-ium-4-carboxamide 2,2,2-trifluoroacetate] | 20% | 50% | 0% | 10% | 40% | 0% | 10% | 20% | 10% | –
9 | C[n+]1cc(C(=O)[N-]S(=O)(=O)C(F)(F)F)c2ccccc2n1 [Compound A44] | 0% | 30% | 0% | 80% | 40% | 0% | 20% | 20% | 20% | –
10 | C[n+]1cc(P(C)(=O)O)c2ccccc2n1 [Compound A31] | 100% | 100% | 100% | 100% | 80% | 70% | 90% | 90% | 60% | –
11 | COC(=O)CCS(=O)(=O)[N-]C(=O)c1c[n+](C)nc2ccccc12 [Compound A42] | 80% | 60% | 60% | 70% | 60% | 10% | 40% | 40% | 20% | –
12 | C[n+]1cc(CCC(=O)O)c2ccccc2n1 [Compound A55, 3-(2-methylcinnolin-2-ium-4-yl)propanoic acid chloride] | 100% | 70% | 100% | 90% | 100% | 20% | 30% | 70% | 90% | –
